From US7629156B2, “Ethanol production in fermentation of mixed sugars containing xylose” (E.I. du Pont de Nemours and Company, priority 2006, dated 2009)

Experiments:
Format in all cases: cell-based, Zymomonas mobilis
ZW658 strain [1] = experiment: Flask fermentation of ZW658 on glucose and xylose with acetate and various polyols; conditions: 10 mM polyol, 3 g/L acetate; for OD600: after 32 hours, total sugar about 160 g/L
Protocol: (§1) Approximately 1 ml of well mixed sample was obtained from flask or fermentor. First the sample absorbance was measured directly with a spectrophotometer (Amersham Biosciences Ultrospec 3300pro, GE Healthcare, Piscataway, N.J., USA). If the reading was lower than 0.6 unit, no dilution was needed. If the reading was higher than 0.6 unit, the sample was diluted with culture medium until the actual reading was in the range of 0.1 to 0.6 unit. The original OD was calculated from the dilution ratio and the actual reading.
(§2) The analysis of sugars, acetate, ethanol, and other by-products was done with an Agilent 1100 series HPLC and Agilent ChemStation software for LC 3D. The column was BioRad Aminex HPX-87H(HPLC Organic Analysis Column 125-0140) with BioRad Micro-Guard Cartridge Cation-H (125-0129). The operating conditions were:
(§3) Glycerol stock of seed frozen at −80° C. was thawed, then inoculated into sterile culture tubes with mixture of 60 g/L glucose, 20 g/L xylose, 10 g/L yeast extract (YE), 10 g/L KH2PO4, 2 g/L (NH4)2SO4, and 1 g/L MgSO4. Initial pH was adjusted to 5.5 with 4 N KOH. This revival culture was grown statically overnight at 37° C. It was transferred into shake flasks with 75 g/L glucose, 25 g/L xylose, 10 g/L yeast extract (YE), 10 g/L KH2PO4, 2 g/L (NH4)2SO4, and 1 g/L MgSO4. Initial pH was adjusted to 5.5 with 4 N KOH. Growth was monitored by measuring OD600. When the OD reached approximately 5, a certain volume of the seed was withdrawn into a sterile syringe for inoculation.
In five sterilized 125 ml Erlenmeyer culture flasks (Cat. No. 30180-036, VWR International, USA), 10 ml of ZW658 strain seed culture at OD600 of approximately 5 was inoculated into each flask with 100 ml of aqueous solution containing 100 g/L glucose, 80 g/L xylose, 3 g/L acetate, 10 g/L yeast extract (YE), 2 g/L KH2PO4, 1 g/L MgSO4.7H2O, and 4 g/L KHCO3, and 10 mM of the following polyols: erythritol, sorbitol, mannitol, maltitol, or lactitol; or 5 mM sorbitol plus 5 mM maltitol, or 5 mM sorbitol plus 5 mM lactitol. After inoculation, the total sugar concentration was about 160 g/L due to dilution by the seed culture. Initial pH was adjusted to 5.5 with 4 N H3PO4 solution. Mixing speed was set at 150 rpm. Fermentation was conducted at 33° C. and pH was not controlled. Samples were taken periodically. Samples were filtered through 0.22 micron filters, and the filtrates were analyzed by HPLC as described in General Methods for compounds including glucose, xylose, ethanol, and acetate. Samples were diluted with medium (as described in General Methods) and the OD600 was measured to monitor cell growth.

ZW658 strain [2] = experiment: Flask fermentation of ZW658 on glucose and xylose with various polyols; conditions: 10 mM polyol; for ethanol production / xylose utilization: mixed sugars; for OD600: after 32 hours, total sugar about 160 g/L, 33° C.
Protocol: as §1, §2, §3
In five sterilized 125 ml Erlenmeyer culture flasks (Cat. No. 30180-036, VWR International, USA), 10 ml of ZW658 strain seed culture at OD600 of approximately 5 was inoculated into each flask with 100 ml of aqueous solution containing 100 g/L glucose, 80 g/L xylose, 10 g/L yeast extract (YE), 2 g/L KH2PO4, 1 g/L MgSO4.7H2O, and 4 g/L KHCO3, and 10 mM of one of the following polyols: erythritol, sorbitol, mannitol, maltitol, or lactitol. After inoculation, the total sugar concentration was about 160 g/L due to dilution by the seed culture. Initial pH was adjusted to 5.5 with 4 N H3PO4 solution. Mixing speed was set at 150 rpm. Fermentation was conducted at 33° C. and pH was not controlled. Samples were taken periodically. Samples were filtered through 0.22 micron filters, and the filtrates were analyzed by HPLC as described in General Methods for compounds including glucose, xylose, ethanol, xylitol, and acetic acid. Samples were diluted with medium (as described in General Methods) and the OD600 was measured to monitor cell growth. […] Cultures with sorbitol or mannitol grew faster and better. After 32 hours, the OD600 were 13.94 and 13.92, respectively, for cultures supplemented with sorbitol or mannitol; meanwhile, the OD600 were 9.48, 9.02, and 9.24, respectively, for cultures supplemented with erythritol, maltitol, or lactitol. […] The presence of sorbitol or mannitol allowed more xylose utilization, without production of xylitol.

ZW658 strain [3] = experiment: Tube fermentation of ZW658 on glucose and xylose with various sugar alcohols (Example 13); conditions: for ethanol production / xylose utilization: sugar alcohol in the medium vs control
Protocol: as §1, §2
In eight sterilized 50 ml screw-cap centrifuge tubes (Cat. No. 21008-178, VWR International, USA), 200 μl of ZW658 strain glycerol stock at OD600 of approximately 10 was inoculated into each flask with 25 ml of aqueous solution containing 92 g/L glucose, 82 g/L xylose, 10 g/L yeast extract (YE), 2 g/L KH2PO4, 1 g/L MgSO4.7H2O, and either 10 mM of sorbitol, arabitol, adonitol (also called ribitol), or galactitol; or 50 mM of arabitol, adonitol, or galactitol. The control had no sugar alcohol added. Initial pH was adjusted to 5.5 with 4 N H3PO4 solution. Fermentation was conducted at 33° C. and pH was not controlled. Samples were taken periodically between 0 and 40 hr. Samples were filtered through 0.22 micron filters, and the filtrates were analyzed by HPLC as described in General Methods for glucose, xylose, xylitol, and ethanol. Samples were diluted with medium (as described in General Methods) and the OD600 was measured to monitor cell growth. Results of growth and glucose utilization are given in FIGS. 20A and 20B, respectively. Results of xylose utilization and ethanol production are given in FIGS. 21A and 21B, respectively. Cultures with sorbitol or galactitol grew much faster and better than the control. Cultures with adonitol also grew better. After 40 hours, the OD600 were 7 to 8, for cultures supplemented with sorbitol or galactitol; the OD600 were about 5, for cultures supplemented with adonitol; while the OD600 were less than 1 for other cultures. […] The presence of sorbitol, galactitol, or adonitol allowed more xylose utilization, without production of xylitol.

ZW658 strain [4] = experiment: 1-liter fermentor, ZW658 on high concentration glucose and xylose with sorbitol or glutamate
Protocol: as §1, §2, §3
In a sterilized 1-liter fermentor (BIOSTAT® B-DCU system, Sartorius BBI System Inc., Bethlehem, Pa., USA), 50 ml of ZW658 strain seed culture at Optical Density of approximately 5 (measured at 600 nm) was inoculated into 450 ml of aqueous solution containing sugars and medium. The final mixed broth contained 100 g/L glucose, 85.1 g/L xylose, 10 g/L yeast extract (YE), 2 g/L KH2PO4, and 10 mM sorbitol. pH was adjusted to 5.5 with 4 N KOH solution. Mixing speed was set at 150 rpm. Fermentation was conducted at 33° C. and pH 5.5. Samples were taken periodically. Samples were filtered through 0.22 micron filters, and the filtrates were analyzed by HPLC as described in General Methods for compounds including glucose, xylose, ethanol, and acetate. Samples were also diluted with medium (as described in General Methods) and the OD600 was measured to monitor cell growth. […] The by-product xylitol concentration was 0.67 g/L at 29 hr, and increased to 0.95 g/L at 64 hr.
In a sterilized 1-liter fermentor (BIOSTAT® B-DCU system, Sartorius BBI System Inc., Bethlehem, Pa., USA), 50 ml of ZW658 strain seed culture at OD600 of approximately 5 was inoculated into 450 ml of aqueous solution containing sugars and medium. The final mixed broth contained 98.0 g/L glucose, 81.2 g/L xylose, 10 g/L yeast extract (YE), 2 g/L KH2PO4, and 10 mM potassium glutamate. pH was adjusted to 5.5 with 4 N KOH solution. Mixing speed was set at 150 rpm. Fermentation was conducted at 33° C. and pH 5.5. Samples were taken periodically. Samples were filtered through 0.22 micron filters, and the filtrates were analyzed by HPLC as described in General Methods for compounds including glucose, xylose, xylitol, ethanol, and acetic acid. Samples were also diluted with medium (as described in General Methods) and the OD600 was measured to monitor cell growth. […] However, xylose was not well-utilized, cell growth and ethanol production were reduced as compared to that in the presence of sorbitol (Example 4), and xylitol production increased.

ZW658 strain [5] = experiment: Tube fermentation of ZW658 on glucose and xylose with various sugar alcohols (Example 14); conditions: for ethanol production / xylose utilization: 10 mM sugar alcohol vs control; for OD600: after 48 hours, 10 mM sugar alcohol, 92 g/L glucose, 82 g/L xylose
Protocol: as §1, §2
In six sterilized 50 ml screw-cap centrifuge tubes (Cat. No. 21008-178, VWR International, USA), 200 μl of ZW658 strain glycerol stock at OD600 of approximately 10 was inoculated into each flask with 25 ml of aqueous solution containing 92 g/L glucose, 82 g/L xylose, 10 g/L yeast extract (YE), 2 g/L KH2PO4, 1 g/L MgSO4.7H2O, and 10 mM of D-sorbitol, L-sorbitol, D-threitol, myo-inositol, or xylitol. The control had no addition of sugar alcohol. Initial pH was adjusted to 5.5 with 4 N H3PO4 solution. Fermentation was conducted at 33° C. and pH was not controlled. Samples were taken periodically between 0 and 48 hr. Samples were filtered through 0.22 micron filters, and the filtrates were analyzed by HPLC as described in General Methods for glucose, xylose, xylitol, and ethanol. Samples were diluted with medium (as described in General Methods) and the OD600 was measured to monitor cell growth. Results of growth and glucose utilization are given in FIGS. 22A and 22B, respectively. Results of xylose utilization and ethanol production are given in FIGS. 23A and 23B, respectively. Cultures with D-sorbitol or L-sorbitol grew faster and better than the control. After 48 hours, the OD600 were 6.2 and 5.2, respectively, for cultures supplemented with D-sorbitol or L-sorbitol; while the OD600 were less than 1 for other cultures. […] The presence of D-sorbitol or L-sorbitol allowed more xylose utilization, without production of xylitol.

[6] = after 63.75 hours, 10 mM potassium glutamate
[7] = in the presence of glutamate, mixed sugars

OC[C@@H](O)[C@@H](O[C@H]1O[C@H](CO)[C@@H](O)[C@H](O)[C@H]1O)[C@H](O)[C@@H](O)CO [maltitol]
OD600 (ZW658 strain [1]): 5.20 | ethanol production (ZW658 strain [2]): do not increase ethanol production | xylose utilization (ZW658 strain [2]): nor do they increase xylose utilization | OD600 (ZW658 strain [2]): 9.02

OC[C@@H](O)[C@@H](O)[C@@H](O)CO [adonitol]
OD600 (ZW658 strain [3]; after 40 hours, 10 mM sorbitol, 10 mM or 50 mM other sugar alcohols, 92 g/L glucose, 82 g/L xylose): about 5 | ethanol production (ZW658 strain [3]): ethanol production was also better | xylose utilization (ZW658 strain [3]): More xylose was utilized

OC[C@@H](O)[C@@H](O[C@@H]1O[C@H](CO)[C@H](O)[C@H](O)[C@H]1O)[C@H](O)[C@@H](O)CO [lactitol]
OD600 (ZW658 strain [1]): 5.30 | ethanol production (ZW658 strain [2]): do not increase ethanol production | xylose utilization (ZW658 strain [2]): nor do they increase xylose utilization | OD600 (ZW658 strain [2]): 9.24

OC[C@@H](O)[C@H](O)[C@H](O)[C@@H](O)CO [galactitol]
ethanol production (ZW658 strain [3]): ethanol production was also better | xylose utilization (ZW658 strain [3]): More xylose was utilized

OC[C@@H](O)[C@@H](O)[C@H](O)[C@H](O)CO [mannitol]
ethanol production (ZW658 strain [1]): ethanol production was also better | xylose utilization (ZW658 strain [1]): More xylose was utilized | OD600 (ZW658 strain [1]): 7.40 | ethanol production (ZW658 strain [2]): ethanol production was also better | xylose utilization (ZW658 strain [2]): More xylose was utilized | OD600 (ZW658 strain [2]): 13.92

N[C@@H](CCC(=O)[O-])C(=O)[O-].[K+].[K+] [glutamate, potassium glutamate, reference compound]
effect on lag period (ZW658 strain [4]; 10 mM potassium glutamate): reduced the lag period | time at which glucose concentration reached 0 (ZW658 strain [4]; 10 mM potassium glutamate): 24 h | OD600 cells grew to (ZW658 strain [4]; [6]): 6.9 | by-product xylitol concentration (ZW658 strain [4]; [6]): 4.38 g/L | ethanol concentration (ZW658 strain [4]; [6]): 72.3 g/L | xylose concentration (ZW658 strain [4]; after 63.75 hours, 98.0 g/L glucose, 81.2 g/L xylose, 10 mM potassium glutamate): 21.2 g/L | glucose concentration (ZW658 strain [4]; after 63.75 hours, 98.0 g/L glucose, 81.2 g/L xylose, 10 mM potassium glutamate, 33° C., pH 5.5): 0 g/L | effect on ethanol production (ZW658 strain [4]; [7]): ethanol production is not improved | effect on xylitol production (ZW658 strain [4]; [7]): xylitol production is not reduced | effect on xylose utilization (ZW658 strain [4]; [7]): xylose utilization is not enhanced

OC[C@@H](O)[C@@H](O)[C@H](O)[C@@H](O)CO [D-sorbitol]
ethanol production (ZW658 strain [5]): ethanol production was also better | xylose utilization (ZW658 strain [5]): More xylose was utilized | OD600 (ZW658 strain [5]): 6.2

OC[C@@H](O)[C@H](O)[C@@H](O)[C@@H](O)CO [L-sorbitol]
ethanol production (ZW658 strain [5]): ethanol production was also better | xylose utilization (ZW658 strain [5]): More xylose was utilized | OD600 (ZW658 strain [5]): 5.2

OC[C@@H](O)[C@@H](O)CO [erythritol]
OD600 (ZW658 strain [1]): 5.20 | ethanol production (ZW658 strain [2]): do not increase ethanol production | xylose utilization (ZW658 strain [2]): nor do they increase xylose utilization | OD600 (ZW658 strain [2]): 9.48
